Measurements from article PMC9821961, “Ring-Modified Histidine-Containing Cationic Short Peptides Exhibit Anticryptococcal Activity by Cellular Disruption” (Molecules, 2022).
≈ marks a conversion by molar mass, not a printed value. Where “and” joins values, the source holds several entries; their conditions need not be identical. Equal values may be shown once. Read-outs that look alike come from different tables or passages of the source.

Assays:
P. aeruginosa = experiment: microbe, parasite or virus in culture; type: cell-based, Pseudomonas aeruginosa; details: 48 h
Cryptococcal cells = details: for MIC Alone: cryptococcal cells, agent alone
C. neoformans = experiment: microbe, parasite or virus in culture; type: cell-based, Cryptococcus neoformans; details: 48 h
Summary of the method: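 CLSI broth microdilution with two-fold serial dilutions of DMSO-dissolved peptides. Fungi (C. glabrata MTCC 3019, C. neoformans NCCPF250316) were grown in RPMI 1640 or YPED at 10^3 CFU/mL for 48 h at 30 °C. Bacteria (S. aureus MTCC 3160, E. faecalis MTCC 439) were grown in Mueller Hinton at 10^5 CFU/mL for 24 h at 37 °C. MIC and IC50 come from OD600.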

C. parapsilosis = experiment: microbe, parasite or virus in culture; type: cell-based, Candida parapsilosis; details: 48 h
Summary of the method: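 Growth inhibition was measured by broth microdilution. MIC and IC50 were calculated from optical density at 600 nm after 48 h at 30 °C for Candida and Cryptococcus (10^3 CFU/mL, RPMI 1640 or YPED) and after 24 h at 37 °C for the Gram-positive bacteria (10^5 CFU/mL, Mueller Hinton).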

C. neoformans cells [1] = experiment: Time kill assay; details: time-kill profile over 24 h
[2] = system: C. neoformans (ATCC350) cells; experiment: CLSM DAPI uptake assay; type: cell-based, Cryptococcus neoformans; details: at MIC, 12 h, then DAPI
Description: After incubation, treated and untreated cells were centrifuged at 2000× g for 10 min at 4 °C and suspended in cold PBS and followed by 2–3 washings with PBS. The cells were then incubated with DAPI (3.01 μM) for 10 min at room temperature with constant shaking, harvested by centrifugation and suspended in PBS. Then, the fungal cells were examined using confocal microscopy (Olympus Fluoview™ FV1000 SPD; Olympus, Tokyo, Japan) with excitation at 350 nm and emission at 470 nm.

S. aureus = experiment: microbe, parasite or virus in culture; type: cell-based, Staphylococcus aureus; details: 48 h
Excerpt: Microbial strains: Microbial strains were procured from National Culture Collection of Pathogenic Fungi (NCCPF) at the Postgraduate Institute of Medical Education & Research (PGIMER), Chandigarh and Microbial Type Culture Collection and Gene bank (MTCC) at the Institute of Microbial Technology (IMTECH), Chandigarh, India. Peptides were screened against five different strains of fungi: viz. Candida albicans (NCCPF400034), Candida glabrata (MTCC 3019), Candida parapsilosis (NCCPF 440002), Candida krusei (NCCPF 440002) and Cryptococcus neoformans (NCCPF250316), and five strains of bacteria: viz. Escherichia coli (MTCC 2961), Staphylococcus aureus (MTCC 3160), Enterococcus faecalis (MTCC 439), Streptococcus pyogenes (MTCC 442) and Pseudomonas aeruginosa (MTCC 3542).
Growth media: Antifungal susceptibility testing was carried out using standard broth microdilution assays as per the Clinical and Laboratory Standards Institute (CLSI) guidelines for fungi. RPMI 1640 (Sigma), yeast extract, peptone and dextrose (YPED, Himedia) were used as the incubation broths. The cells were diluted to a cell density of 10^3 colony forming unit (CFU/mL) and incubated at 30 °C for 48 h. Furthermore, Muller Hinton (Himedia) media was utilized for bacterial strains and antibacterial activity was evaluated per CLSI guidelines for bacteria. […] Amphotericin B (Himedia, India) and rifampicin (Himedia, India) were used as standard drugs for the evaluation of activity against all the fungal and bacterial strains, respectively.
The stock solutions of peptides (2 mg/mL) were prepared in DMSO. Specific amounts of peptide from stock solution were added to a 96-well microtiter plate containing 100 μL of growth media and then serially diluted two-fold. A further 100 μL of growth media containing microbial cells were added to each well and incubated at 30–37 °C for 24–48 h. The optical density (OD) was measured at 600 nm using a BioStack Ready (BioTek Instruments, Winooski, VT, USA) microplate reader to analyze microbial growth inhibition, and IC50 and MIC values were calculated. To visualize the growth and inhibition pattern, a solution of 3-(4,5-dimethylthiazol-2-yl)-2,5-diphenyltetrazolium bromide (MTT) in water was added to the plate and incubated for 2–3 h. MTT reacts with the mitochondrial dehydrogenases, which are present only in a viable cell, to give blue colored formazan crystals. Therefore, a darker color indicates a high number of viable cells; however, non-viable cells appear pale or colorless.

C. neoformans cells [3] = experiment: Internal cell morphology analysis by TEM (HRTEM, STEM); type: cell-based, Cryptococcus neoformans; details: at MIC, 12 h
Description: The samples were prepared in a similar manner to as mentioned in the procedure for SEM sample preparation, up until the dehydration of cells with increasing gradients of ethanol. The dehydrated samples were then embedded in resin which was prepared from an epoxy embedding medium kit (Sigma, 45359-1EA-F). Increasing gradients (10%, 20%, 30%, 50%, 70% and 90%) of resin were added to the samples followed by incubation for 1–2 h at room temperature after addition of each gradient. Undiluted resin (100%) was added to the sample and incubated for 24 h at 70 °C. Semi-thin and ultrathin sections were cut with an ultramicrotome (Ultramicotome Lecia EM UC6). The sections of samples were placed on a 3.05 mm diameter and 200 mesh copper grid and stained with uranyl acetate or lead acetate, before observation under the HRTEM (FEI Technai G2 F20, Eindhoven, The Netherlands) and analysis at 120 KV.

C. neoformans cells [4] = experiment: CLSM FITC-labeled peptide uptake assay; type: cell-based, Cryptococcus neoformans; details: FITC-tagged peptide, 12 h
Description: After incubation, cells were harvested by centrifugation at 2000× g for 10 min at 4 °C and suspended in PBS and mounted on a slide for visualization under a confocal microscope with excitation and emission wavelengths of 488 nm and 515 nm, respectively.

Red blood cells (RBCs) = details: for % Hemolysis HC10 / % Hemolysis HC50: red cells of human
Description: Human blood in 10% citrate phosphate dextrose was obtained from Government Hospital, Chandigarh, India. Red blood cells (RBCs) were harvested by spinning at 1000× g for 5 min followed by washing with PBS 3–5 times. The packed cell volume was obtained and utilized to make a 0.8% (v/v) suspension of RBCs in PBS. […] The plate was incubated at 37 °C for 60 min followed by centrifugation at 1000× g for 5 min at 25 °C. The supernatant (100 μL) was transferred to a fresh microtiter plate and absorbance was recorded at 414 nm (Varioskan LUX multimode microplate reader, Thermo Scientific, Waltham, MS, USA) to analyze RBC lysis. Untreated RBCs in PBS and lysed RBCs in 0.1% Triton X-100 were used as negative and positive controls, respectively [29]. Percent hemolysis was calculated using following equation [38]. (3) % Hemolysis=Absorbance of treated sample−Absorbance of negative control/Absorbance of positive control−Absorbance of negative control×100

in vitro = details: human, HEK-293 cells
Description: (§1) The cells (50,000 cells/well) were seeded to the wells of the plate in Dulbecco’s Modified Eagle Medium (DMEM) supplemented with 10% fetal bovine serum at 37 °C overnight and incubated for 24 h to achieve confluency. Peptides at different concentrations of 50, 25, 12.5, 6.25, 3.12, 1.56 and 0.78 μg/mL were added to the cells in separate wells and incubated at 37 °C for 18 h. A further 20 µL MTT solution (5 mg/mL stock conc. in PBS) was added and the plate was incubated for another 3–4 h. To detect the viable cells that react with MTT to make formazan crystals, 120 μL of supernatant was removed and 100 μL DMSO was added to dissolve the crystals. Untreated cells and DMSO (10%) were used as negative and positive controls, respectively [37]. The percent viability of cells was calculated using equation:(2) % Cell viability=Av. Absorbance of treated cells/Av. Absorbance of control cells×100

E. faecalis = experiment: microbe, parasite or virus in culture; type: cell-based, Enterococcus faecalis; details: 48 h

Description for HEK 293: as §1
Description for HeLa: as §1

Row | SMILES | IC50 (P. aeruginosa) | MIC (P. aeruginosa) | MIC Alone (Cryptococcal cells) | Cytotoxic nature (HEK 293) | Cytotoxic nature (HeLa) | MIC (C. neoformans) | IC50 (C. parapsilosis) | MIC (C. parapsilosis) | Time after which growth/CFUs of cryptococcal cells dropped or were inhibited (C. neoformans cells [1]) | DAPI fluorescence of treated cells (CLSM) [2] | IC50 (S. aureus) | MIC (S. aureus) | Internal morphology of treated cells (HRTEM) (C. neoformans cells [3]) | Morphology of treated cells (STEM) (C. neoformans cells [3]) | Fluorescence of cells incubated with FITC-labeled peptide (CLSM) (C. neoformans cells [4]) | Hemolytic behavior (Red blood cells (RBCs)) | % Hemolysis HC10 (Red blood cells (RBCs)) | % Hemolysis HC50 (Red blood cells (RBCs)) | CC50 at 18 h (in vitro) | IC50 (E. faecalis) | other results
1 | COC(=O)[C@H](Cc1ncn(Cc2cc(C(C)(C)C)cc(C(C)(C)C)c2)c1I)NC(=O)[C@@H](N)Cc1c[nH]c2ccccc12 [10d, Trp-His[1-(3,5-di-tert-butylbenzyl)-5-iodo]-OMe] | >35.2 µg/mL | >64.0 µg/mL | 4.01 µg/mL (≈ 5.87 µM) | non-cytotoxic | non-cytotoxic | 4.01 µg/mL (≈ 5.87 µM) | >35.2 µg/mL | >64.0 µg/mL | 12 h | fragmented bright blue fluorescence | 17.6 µg/mL (≈ 25.7 µM) | 32.0 µg/mL (≈ 46.8 µM) | complete lysis of the cell membrane | highly shrunken cells with irregular cell membranes | prominent green fluorescence | non-hemolytic | 50.53 µg/mL | >100 µg/mL | > 100 µg/mL | 17.6 µg/mL (≈ 25.7 µM) | Fold Decrease in MIC (Cryptococcal cells; combination 10d + Amp B): 16; MIC In Combination (Cryptococcal cells; combination 10d + Amp B): 0.25 µg/mL and 0.250 µg/mL; FICI (Cryptococcal cells; combination 10d + Flu): 0.19; MIC In Combination (Cryptococcal cells; combination 10d + Flu): 0.501 µg/mL; IC50 (C. neoformans): 2.20 µg/mL (≈ 3.22 µM); MIC (E. faecalis): 32.0 µg/mL (≈ 46.8 µM)
2 | COC(=O)[C@H](Cc1ncn(Cc2ccccc2I)c1I)NC(=O)[C@@H](N)Cc1c[nH]c2ccccc12 [10o, Trp-His[1-(2-iodobenzyl)-5-iodo]-OMe] | >35.2 µg/mL | >64.0 µg/mL | 4.59 µg/mL (≈ 6.58 µM) | non-cytotoxic | non-cytotoxic | 4.59 µg/mL (≈ 6.58 µM) | >35.2 µg/mL | >64.0 µg/mL | 12 h | fragmented bright blue fluorescence | >35.2 µg/mL | >64.0 µg/mL | cell membrane was completely damaged | highly deformed and shrunken | prominent green fluorescence | non-hemolytic | 52.17 µg/mL | >100 µg/mL | > 100 µg/mL | 17.6 µg/mL (≈ 25.2 µM) | MIC In Combination (Cryptococcal cells; combination 10o + Amp B): 0.287 µg/mL; Effect (Cryptococcal cells; combination 10o + Flu): Additive; Fold Decrease in MIC (Cryptococcal cells; combination 10o + Flu): 1.5; MIC In Combination (Cryptococcal cells; combination 10o + Flu): 2.999 µg/mL; MIC (E. faecalis): 32.0 µg/mL (≈ 45.9 µM)
